One assay concerns BRx42. In words: Single CTC proliferation over 24 days (AUC), BRx42 line. The assay is classed as cell-based, human. On the procedure: (§1) Cell culture. CTC lines were previously derived from metastatic breast cancer patients. CTC lines were cultured in ultra-low attachment plates with RPMI 1640 medium, supplemented with EGF (20 ng/mL), bFGF (20 ng/mL), 1×B27 and 1× antibiotic/antimycotic, in 4% 02 and 5% CO2. Single CTCs were cultured in GravityTRAP™ ULA 96 well Plates (PerkinElmer). Wells on the edges of the plates were not used to avoid influence from evaporation. Media with fresh compounds were exchanged every 3 days by inserting pipet tips onto the platform of the wells to prevent accidentally aspirating suspended CTCs at the bottom. CTC numbers were counted manually under an inverted microscope every 6 days.
(§2) FACS sorting. […]
(§3) Statistical analysis. […] AUC was calculated for each well in each batch, by plotting days in the x-axis and the corresponding number of cells in the y-axis, then drawing a line to connect the number of cells from the starting count day to the next count day until the end day, and finally calculating the area under this line as the sum of areas of trapezoids. […] Statistical tests were performed using R. For absolute number of cells quantification, total number of cells at end of experiment in each well in each batch was compared between treated cells and untreated control and significance was analyzed with Student t test. […]

The subject of assay [1] is single CTCs from 4 patient-derived CTC lines (BRx07, BRx42, BRx50, and BRx68). In words: Validation of candidate compounds: single CTC proliferation over 24 days (AUC). The assay is classed as cell-based, human. Here is the method:
as §1
FACS sorting. Cells were pelleted and resuspended into single cell suspension in 1% BSA in PBS buffer with 7-AAD. Live single CTCs were sorted directly into 96-well GravityTRAP™ ULA Plates using a MoFlo cell sorter (Beckman Coulter). An inverted microscope was used to manually confirm that there was 1 CTC per well, 1 hour after sorting.
Compounds screening. Compounds were from the StemSelect library obtained from the Choi Family Therapeutic Screening Facility at the Eli and Edythe Broad CIRM Center for Regenerative Medicine and Stem Cell Research at USC. Each compound was given a code to ensure unbiased assessment and blinded to the investigators. Compound information is listed in Appendix, at Table 1 of US Provisional Application No. U.S. 62/990,445, incorporated herein by reference). In the first-round screening, compounds were used with […] concentration. Stocks of compounds (10 mM concentration in DMSO) were stored in aliquots at −80° C. All compounds were thawed and refrozen for a maximum of 2 times. In the second-round validation, fresh compounds were dissolved in DMSO (Millipore sigma), and aliquots were stored at −20° C. and used only once without refreezing. Only wells started from single cells on day 0 after sorting were used in the screening experiment. Data collection was done in batches.
as §3, with “test. For other experiments, data were analyzed with Student t test, and represent the means±SEM of at least triplicate samples or averages ±SD of independent analyses, as indicated.” for “test.”

Assay [2] relates to breast cancer circulating tumor cell (CTC). Put plainly: Breast cancer CTC growth screen. The assay is classed as cell-based, human. To be noted: added at 1 uM. On the procedure: Using the assay system described herein CTC were contact with a panel of small molecule drugs and the effect of the drugs on cell growth, migration, proliferation and gene expression was measured. […] This was initially found in a breast cancer circulating tumor cell (CTC) growth screen.

The subject of assay [3] is MCF7 cells, MDA-MB-231 cells, T47D cells. Put plainly: Senescence assay: β-galactosidase activity. The assay is classed as cell-based. To be noted: various concentrations. The source says: (A) MCF7 cells. (B) MDA-MB-231 cells. (C) T47D cells.
Because an arrested state in which the cell remains viable, are not stimulated to divide by serum or passage in culture, a specific cell cycle profile is illicited that differs from most damage-induced arrest processes or contact inhibition. Characteristics of senescence cells include an enlarged cell size, expression of pH-dependent β-galactosidase activity, and an altered pattern of gene expression. To determine these characteristics, CTC cells were cultured with a compound of Formula II or cx-4945 (Silmitasertib) at various concentrations and β-galactosidase activity was measured.

A further assay deals with single BRx68 cells. Put plainly: Single CTC proliferation over 24 days (AUC), BRx68 line. The assay is classed as cell-based, human. Here is the method: as §1, §2, §3
For another assay, the system named is BRx68-GFP+ cells. In words: RNA-seq analysis of pools of growing single cell clones. The assay is classed as cell-based, human. To be noted: day 6; NAC 0.3 mM, P4D8 1 μM. On the procedure:
RNA-seq analysis. BRx68-GFP+ cells were sorted, with 1 cell per well, using the MoFlo cell sorter (Beckman Coulter). Single cells were cultured in the presence of CTC media containing either 1 μM of P1C2, P4D8, or P1G7, or 0.3 mM of NAC or a combination of 1 μM of P1C2 and 0.3 mM of NAC. Cells cultured in media containing DMSO served as a control. All cells were cultured for either 6 days or 13 days at 37° C., 5% CO2 and 4% O2, and media was changed every 3 days. For both day 6 and day 13 groups, only clones with more than 3 cells at day 6 were harvested and pooled to a maximum of 50 cells. […] Libraries were sequenced on an Illumina NextSeq500 to obtain 75 bp-long single-end reads.
RNA-sequencing reads were trimmed for Nextera and Illumina adapter sequences using Trim Galore under default parameters. Trimmed reads were then mapped to the human genome build GRCh37 from Ensembl (ftp:/][/ftp.ensembl.org/pub/grch37/current/fasta/homo_sapiens/dna/Homo_sapiens.GRCh37.dna_sm.primary_as sembly.fa.gz) using STAR under optimized parameters for single-end sequenced data. Aligned reads were then counted via feature-Counts and piped into DESeq2 for normalization to sequencing depth and downstream analysis. […]

Here are results for three molecules from patent US20230184743A1, “SCREENING METHODS TO IDENTIFY SMALL MOLECULE COMPOUNDS THAT PROMOTE OR INHIBIT THE GROWTH OF CIRCULATING TUMOR CELLS, AND USES THEREOF” (University of Southern California, priority 2020, published 2023).

SMILES strings stand for the structures.

Regarding `N#C/C(=C\c1ccc(-c2cc(Cl)ccc2Cl)o1)C(=O)Nc1cccc2ncccc12` [P1G3, AGK2], the single cell growth result in the assay with BRx42 is “promote single cell growth”.
For `COc1cc(Nc2ncc3ccn(-c4cccc(CCC#N)c4)c3n2)cc(OC)c1OC` [Formula II, 3-(3-(2-(3,4,5-Trimethoxy-phenylamino)-7H-pyrrolo[2,3-d]pyrimidin-7-yl)phenyl)propionitrile], the “proliferation of single CTCs (AUC measurement)” value in assay [1] (4 different CTC lines over 24 days) is reported as “inhibition of the proliferation”. In assay [2], the CTC growth result is “stopped growing”. Further, in assay [3], the “induced senescence (β-galactosidase activity) relative to CX-4945” value is 3-4 fold.
Turning to `CCNCc1cc(C(C)(C)C)c(O)c(C(C)(C)C)c1` [P4D8, LY 231617], the single cell growth result in assay [1] (other lines (than BRx68)) is given as “inhibit growth”; with single BRx68 cells, “promote single cell growth”. The “lipid metabolism pathway enrichment (IPA of differentially expressed genes) compared with control” value in the assay with BRx68-GFP+ cells is given as “enriched”.
